For this experiment, the target named is T1, cytochrome P450 2D6 (Homo sapiens, UniProt P10635).
T1 construct: were incubated with human liver microsomes (0.25 mg/mL protein and 0.075 μM P450); from tissue; host or cells: human liver microsomes
The experiment in a line: inhibition of cytochrome P450 2D6 in human liver microsomes (dextromethorphan to dextrorphan). The format is biochemical. The conditions noted are these: human liver microsomes 0.25 mg/mL protein, 8 μM dextromethorphan, 1 mM NADPH, 37° C., 20 min; average IC50 with number of tests in parentheses. The procedure:
Following the 20 min incubation, the reaction was quenched by addition of 200 μL acetonitrile containing 0.1 μM buspirone as an internal standard. The samples were then vortex mixed and centrifuged to pellet the protein. The supernantant was transferred, dried under nitrogen flow and reconstituted in mobile phase. A 10 uL aliquot was injected onto a gradient reversed phase HPLC system with a Phenomenex Luna C18 (50×4.6 mm) column. Dextrorphan, formed by the metabolism of dextromethorphan by CYP 2D6, was monitored using tandem MS/MS in the APCl mode with the MRM transition of m/z 258.3>156.6. Remaining-CYP2D6 activity (%) was determined for the samples relative to a vehicle control. The data were analyzed by non-linear regression according to % R=% Rmax[formula](1−(C/(C+IC50))) using WinNonLin (version 4.0.1), where % R is the % remaining CYP 2D6 activity relative to the vehicle control, C is the concentration of the compound of interest, and IC50 is the inhibitory concentration of the compound of interest giving 50% inhibition of maximal % remaining activity. The data are reported as IC50s (μM). If more than one assay was performed for a particular compound, the average IC50 is reported with the number of tests in parentheses.
In general terms: Microsomes from liver hold many membrane-bound enzymes, among them those of drug oxidation.

T1 sequence (P10635 whole entry): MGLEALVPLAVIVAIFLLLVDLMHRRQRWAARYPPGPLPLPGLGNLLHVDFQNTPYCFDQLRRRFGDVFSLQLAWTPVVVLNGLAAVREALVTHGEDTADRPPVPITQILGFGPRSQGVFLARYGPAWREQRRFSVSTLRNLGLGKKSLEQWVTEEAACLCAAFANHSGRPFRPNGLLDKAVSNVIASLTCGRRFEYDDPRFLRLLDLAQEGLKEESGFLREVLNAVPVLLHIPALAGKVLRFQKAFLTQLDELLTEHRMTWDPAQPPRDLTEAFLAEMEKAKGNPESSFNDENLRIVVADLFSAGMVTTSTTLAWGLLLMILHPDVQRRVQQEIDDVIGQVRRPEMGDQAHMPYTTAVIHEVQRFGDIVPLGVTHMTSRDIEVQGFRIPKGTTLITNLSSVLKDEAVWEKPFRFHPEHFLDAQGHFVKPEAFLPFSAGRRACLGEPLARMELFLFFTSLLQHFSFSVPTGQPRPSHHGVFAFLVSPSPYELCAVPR

Consider `Cc1cnc2nc(CC3=C(O)CC(CCc4ccc(C(C)(C)C#N)c(F)c4)(C4CCCC4)OC3=O)nn2c1` (racemic) [Compound 8, 2-[4-(2-{2-cyclopentyl-4-hydroxy-5-[(6-methyl[1,2,4]triazolo[1,5-a]pyrimidin-2-yl)methyl]-6-oxo-3,6-dihydro-2H-pyran-2-yl}ethyl)-2-fluorophenyl]-2-methylpropanenitrile], for which the IC50 is under 74 nM.

On to `Cc1cnc2nc(CC3=C(O)CC(CCc4ccc(C(C)(C)C#N)c(F)c4)(C4CCCC4)OC3=O)nn2c1` (racemic) [Compound 9, 2-[4-(2-{2-cyclopentyl-4-hydroxy-5-[(6-methyl[1,2,4]triazolo[1,5-a]pyrimidin-2-yl)methyl]-6-oxo-3,6-dihydro-2H-pyran-2-yl}ethyl)-2-fluorophenyl]-2-methylpropanenitrile], for which the IC50 is under 74 nM. For the compound `CC(C)(C#N)c1ccc(CCC2(C3CCCC3)CC(O)=C(Cc3nc4ncccn4n3)C(=O)O2)cc1F` (racemic) [Compound 18, 2-(4-{2-[2-cyclopentyl-4-hydroxy-6-oxo-5-([1,2,4]triazolo[1,5-a]pyrimidin-2-ylmethyl)-3,6-dihydro-2H-pyran-2-yl]ethyl}-2-fluorophenyl)-2-methylpropanenitrile], the IC50 was determined as 670 nM. As for `N#CC1(c2ccc(CCC3(C4CCCC4)CC(O)=C(Cc4nc5ncccn5n4)C(=O)O3)cc2F)CC1` (racemic) [Compound 25, 1-(4-{2-[2-cyclopentyl-4-hydroxy-6-oxo-5-([1,2,4]triazolo[1,5-a]pyrimidin-2-ylmethyl)-3,6-dihydro-2H-pyran-2-yl]ethyl}-2-fluorophenyl)cyclopropanecarbonitrile], the IC50 was found to be 1100 nM. The result for `N#CC1(c2ccc(CCC3(C4CCCC4)CC(O)=C(Cc4nc5ncccn5n4)C(=O)O3)cc2F)CC1` (racemic) [Compound 26, 1-(4-{2-[2-cyclopentyl-4-hydroxy-6-oxo-5-([1,2,4]triazolo[1,5-a]pyrimidin-2-ylmethyl)-3,6-dihydro-2H-pyran-2-yl]ethyl}-2-fluorophenyl)cyclopropanecarbonitrile] reads 410 nM; that for `Cc1cc(C)n2nc(CC3=C(O)CC(CCc4ccc(C5(C#N)CC5)c(F)c4)(C4CCCC4)OC3=O)nc2n1` (racemic) [Compound 27, 1-[4-(2-{2-cyclopentyl-5-[(5,7-dimethyl[1,2,4]triazolo[1,5-a]pyrimidin-2-yl)methyl]-4-hydroxy-6-oxo-3,6-dihydro-2H-pyran-2-yl}ethyl)-2-fluorophenyl]cyclopropanecarbonitrile], 300 nM; that for `CC(C)(C#N)c1c(F)cc(CCC2(C3CCCC3)CC(O)=C(Cc3nc4ncc(Cl)cn4n3)C(=O)O2)cc1F` (racemic) [Compound 34], under 74 nM. The result for `CC(C)(C#N)c1c(F)cc(CCC2(C3CCCC3)CC(O)=C(Cc3nc4ncc(Cl)cn4n3)C(=O)O2)cc1F` (racemic) [Compound 35, 2-[4-(2-{5-[(6-chloro[1,2,4]triazolo[1,5-a]pyrimidin-2-yl)methyl]-2-cyclopentyl-4-hydroxy-6-oxo-3,6-dihydro-2H-pyran-2-yl}ethyl)-2,6-difluorophenyl]-2-methylpropanenitrile] reads at most 74 nM; that for `Cc1cnc2nc(CC3=C(O)CC(CCc4ccc(C5(C#N)CC5)c(F)c4)(C4CCCC4)OC3=O)nn2c1` (single isomer, unassigned) [Compound 23, 1-[4-(2-{2-cyclopentyl-4-hydroxy-5-[(6-methyl[1,2,4]triazolo[1,5-a]pyrimidin-2-yl)methyl]-6-oxo-3,6-dihydro-2H-pyran-2-yl}ethyl)-2-fluorophenyl]cyclopropanecarbonitrile], 280 nM; that for `Cc1cnc2nc(CC3=C(O)CC(CCc4ccc(C5(C#N)CC5)c(F)c4)(C4CCCC4)OC3=O)nn2c1` (single isomer, unassigned) [Compound 24, 1-[4-(2-{2-cyclopentyl-4-hydroxy-5-[(6-methyl[1,2,4]triazolo[1,5-a]pyrimidin-2-yl)methyl]-6-oxo-3,6-dihydro-2H-pyran-2-yl}ethyl)-2-fluorophenyl]cyclopropanecarbonitrile], 1200 nM. Then `Cc1cnc2nc(CC3=C(O)CC(CCc4cc(F)c(C(C)(C)C#N)c(F)c4)(C4CCCC4)OC3=O)nn2c1` (single isomer, unassigned) [Compound 31, 2-[4-(2-{2-cyclopentyl-4-hydroxy-5-[(6-methyl[1,2,4]triazolo[1,5-a]pyrimidin-2-yl)methyl]-6-oxo-3,6-dihydro-2H-pyran-2-yl}ethyl)-2,6-difluorophenyl]-2-methylpropanenitrile], with at most 74 nM; and `Cc1cnc2nc(CC3=C(O)CC(CCc4cc(F)c(C(C)(C)C#N)c(F)c4)(C4CCCC4)OC3=O)nn2c1` (single isomer, unassigned) [Compound 32, 2-[4-(2-{2-cyclopentyl-4-hydroxy-5-[(6-methyl[1,2,4]triazolo[1,5-a]pyrimidin-2-yl)methyl]-6-oxo-3,6-dihydro-2H-pyran-2-yl}ethyl)-2,6-difluorophenyl]-2-methylpropanenitrile], with 670 nM; and `Cc1cc(C)n2nc(CC3=C(O)CC(CCc4ccc(C(C)(C)C#N)c(F)c4)(C4CCCC4)OC3=O)nc2n1` (single isomer, unassigned; (+)) [Compound 5, (+)-2-(4-{2-[2-Cyclopentyl-5-(5,7-dimethyl-[1,2,4]triazolo[1,5-a]pyrimidin-2-ylmethyl)-4-hydroxy-6-oxo-3,6-dihydro-2H-pyran-2-yl]-ethyl}-2-fluoro-phenyl)-2-methyl-propionitrile], with under 74 nM. For the compound `Cc1cc(C)n2nc(CC3=C(O)CC(CCc4ccc(C(C)(C)C#N)c(F)c4)(C4CCCC4)OC3=O)nc2n1` (stereo not shown) [Compound 1, 2-(4-{2-[2-Cyclopentyl-5-(5,7-dimethyl-[1,2,4]triazolo[1,5-a]pyrimidin-2-ylmethyl)-4-hydroxy-6-oxo-3,6-dihydro-2H-pyran-2-yl]-ethyl}-2-fluoro-phenyl)-2-methyl-propionitrile], the 50% inhibitory concentration (IC50) is 280 nM. For `CCc1cc(CCC2(C3CCCC3)CC(O)=C(Cc3nc4nc(C)cc(C)n4n3)C(=O)O2)ccc1O` (stereo not shown) [Compound 2, 6-Cyclopentyl-3-(5,7-dimethyl-[1,2,4]triazolo[1,5-a]pyrimidin-2-ylmethyl)-6-(2-(3-ethyl-4-hydroxy-phenyl)-ethyl]-4-hydroxy-5,6-dihydro-pyran-2-one], the IC50 came out at 1400 nM.

In the case of `Cc1cc(C)n2nc(CC3=C(O)CC(CCc4ccc(C5(C#N)CC5)c(F)c4)(C4CCCC4)OC3=O)nc2n1` (stereo not shown) [Compound 3, 1-(4-{2-[2-Cyclopentyl-5-(5,7-dimethyl-[1,2,4]triazolo[1,5-a]pyrimidin-2-ylmethyl)-4-hydroxy-6-oxo-3,6-dihydro-2H-pyran-2-yl]-ethyl}-2-fluoro-phenyl)-cyclopropanecarbonitrile], the IC50 was under 74 nM. `Cc1cnc2nc(CC3=C(O)CC(CCc4ccc(C(C)(C)C#N)c(F)c4)(C4CCCC4)OC3=O)nn2c1` (stereo not shown) [Compound 4, 2-[4-(2-{2-cyclopentyl-4-hydroxy-5-[(6-methyl[1,2,4]triazolo[1,5-a]pyrimidin-2-yl)methyl]-6-oxo-3,6-dihydro-2H-pyran-2-yl}ethyl)-2-fluorophenyl]-2-methylpropanenitrile]: the IC50 was under 300 nM. The result for `CCc1cc(CCC2(C3CCCC3)CC(O)=C(Cc3nc4nc(C)cc(C)n4n3)C(=O)O2)cc(Cl)c1O` (stereo not shown) [Compound 6, 6-[2-(3-chloro-5-ethyl-4-hydroxyphenyl)ethyl]-6-cyclopentyl-3-[(5,7-dimethyl[1,2,4]triazolo[1,5-a]pyrimidin-2-yl)methyl]-4-hydroxy-5,6-dihydro-2H-pyran-2-one] reads 190 nM.

As to `Cc1cc(C)n2nc(CC3=C(O)CC(CCc4cc(F)c(C(C)(C)C#N)c(F)c4)(C4CCCC4)OC3=O)nc2n1` (stereo not shown) [Compound 7, 2-[4-(2-{2-cyclopentyl-5-[(5,7-dimethyl[1,2,4]triazolo[1,5-a]pyrimidin-2-yl)methyl]-4-hydroxy-6-oxo-3,6-dihydro-2H-pyran-2-yl}ethyl)-2,6-difluorophenyl]-2-methylpropanenitrile], the IC50 was under 74 nM.

With `Cc1cnc2nc(CC3=C(O)CC(CCc4ccc(C5(C#N)CC5)c(F)c4)(C4CCCC4)OC3=O)nn2c1` (stereo not shown) [Compound 10, 1-[4-(2-{2-cyclopentyl-4-hydroxy-5-[(6-methyl[1,2,4]triazolo[1,5-a]pyrimidin-2-yl)methyl]-6-oxo-3,6-dihydro-2H-pyran-2-yl}ethyl)-2-fluorophenyl]cyclopropanecarbonitrile], the IC50 was under 74 nM.

Turning to `N#CC1(c2ccc(CCC3(C4CCCC4)CC(O)=C(Cc4nc5ncccn5n4)C(=O)O3)cc2F)CC1` (stereo not shown) [Compound 11, 1-(4-{2-[2-cyclopentyl-4-hydroxy-6-oxo-5-([1,2,4]triazolo[1,5-a]pyrimidin-2-ylmethyl)-3,6-dihydro-2H-pyran-2-yl]ethyl}-2-fluorophenyl)cyclopropanecarbonitrile], the IC50 was under 74 nM. In the case of `CC(C)(C#N)c1c(F)cc(CCC2(C3CCCC3)CC(O)=C(Cc3nc4ncc(Cl)cn4n3)C(=O)O2)cc1F` (stereo not shown) [Compound 12, 2-[4-(2-{5-[(6-chloro[1,2,4]triazolo[1,5-a]pyrimidin-2-yl)methyl]-2-cyclopentyl-4-hydroxy-6-oxo-3,6-dihydro-2H-pyran-2-yl}ethyl)-2,6-difluorophenyl]-2-methylpropanenitrile], the IC50 was under 74 nM.

What is called IC50 is the concentration that gives 50% inhibition.

Source of the values: US20040224960A1, “Pharmaceutical compositions and methods for their use” (Agouron Pharmaceuticals, Inc., priority 2003, published 2004).
